Reference: ChEMBL document CHEMBL5316337, “Critical Role of Position 10 Residue in the Polymyxin Antimicrobial Activity” (J Med Chem, 2023)
Converted amounts (≈) assume the structure as drawn.

Assays:
Assay type in all cases: functional
Enterobacter cloacae [1] = assay: Antibacterial activity against polymyxin-susceptible Enterobacter cloacae FADD1-EC006 clinical isolates assessed as reduction in bacterial growth by broth microdilution method
Klebsiella pneumoniae [2] = assay: Antibacterial activity against Carbapenem-resistant Klebsiella pneumoniae FADD1-KP032 clinical isolates assessed as reduction in bacterial growth by broth microdilution method
Klebsiella pneumoniae [3] = assay: Antibacterial activity against Carbapenem-resistant Klebsiella pneumoniae FADD1-KP022 clinical isolates assessed as reduction in bacterial growth by broth microdilution method
Enterobacter cloacae [4] = assay: Antibacterial activity against polymyxin-susceptible Enterobacter cloacae FADD1-EC001 clinical isolates assessed as reduction in bacterial growth by broth microdilution method
Pseudomonas aeruginosa [5] = assay: Antibacterial activity against Carbapenem-resistant Pseudomonas aeruginosa FADD1-PA001 clinical isolates assessed as reduction in bacterial growth by broth microdilution method
Acinetobacter baumannii [6] = assay: Antibacterial activity against polymyxin-susceptible Acinetobacter baumannii ATCC 19606 clinical isolates assessed as reduction in bacterial growth by broth microdilution method
Acinetobacter baumannii [7] = assay: Antibacterial activity against Carbapenem-resistant Acinetobacter baumannii FADD1-AB030 clinical isolates assessed as reduction in bacterial growth by broth microdilution method
Acinetobacter baumannii [8] = assay: Antibacterial activity against Carbapenem-resistant Acinetobacter baumannii FADD1-AB034 clinical isolates assessed as reduction in bacterial growth by broth microdilution method
Enterobacter cloacae [9] = assay: Antibacterial activity against polymyxin-susceptible Enterobacter cloacae FADD1-EC003 clinical isolates assessed as reduction in bacterial growth by broth microdilution method
Acinetobacter baumannii [10] = assay: Antibacterial activity against polymyxin-susceptible Acinetobacter baumannii ATCC 17978 clinical isolates assessed as reduction in bacterial growth by broth microdilution method
Pseudomonas aeruginosa [11] = assay: Antibacterial activity against polymyxin-susceptible Pseudomonas aeruginosa FADD1-PA038 clinical isolates assessed as reduction in bacterial growth by broth microdilution method
Klebsiella pneumoniae [12] = assay: Antibacterial activity against Carbapenem-resistant Klebsiella pneumoniae FADD1-KP065 clinical isolates assessed as reduction in bacterial growth by broth microdilution method
Pseudomonas aeruginosa [13] = assay: Antibacterial activity against Carbapenem-resistant Pseudomonas aeruginosa FADD1-PA022 clinical isolates assessed as reduction in bacterial growth by broth microdilution method
Pseudomonas aeruginosa [14] = assay: Antibacterial activity against polymyxin-susceptible Pseudomonas aeruginosa ATCC 27853 clinical isolates assessed as reduction in bacterial growth by broth microdilution method
Klebsiella pneumoniae [15] = assay: Antibacterial activity against Carbapenem-resistant Klebsiella pneumoniae BM1 clinical isolates assessed as reduction in bacterial growth by broth microdilution method
Klebsiella pneumoniae [16] = assay: Antibacterial activity against polymyxin-susceptible Klebsiella pneumoniae ATCC 700721 clinical isolates assessed as reduction in bacterial growth by broth microdilution method
Pseudomonas aeruginosa [17] = assay: Antibacterial activity against polymyxin-susceptible Pseudomonas aeruginosa FADD1-PA025 clinical isolates assessed as reduction in bacterial growth by broth microdilution method

Row | Compound | MIC (Enterobacter cloacae [1]) | MIC (Klebsiella pneumoniae [2]) | MIC (Klebsiella pneumoniae [3]) | MIC (Enterobacter cloacae [4]) | MIC (Pseudomonas aeruginosa [5]) | MIC (Acinetobacter baumannii [6]) | MIC (Acinetobacter baumannii [7]) | MIC (Acinetobacter baumannii [8]) | MIC (Enterobacter cloacae [9]) | MIC (Acinetobacter baumannii [10]) | MIC (Pseudomonas aeruginosa [11]) | MIC (Klebsiella pneumoniae [12]) | MIC (Pseudomonas aeruginosa [13]) | MIC (Pseudomonas aeruginosa [14]) | MIC (Klebsiella pneumoniae [15]) | MIC (Klebsiella pneumoniae [16]) | MIC (Pseudomonas aeruginosa [17])
1 | CC[C@H](C)CCCCC(=O)N[C@@H](CCN)C(=O)N[C@H](C(=O)N[C@@H](CCN)C(=O)N[C@H]1CCNC(=O)[C@H](CCN)NC(=O)[C@H](CCN)NC(=O)[C@H](CCN)NC(=O)[C@H](CC(C)C)NC(=O)[C@@H](Cc2ccccc2)NC(=O)[C@H](CCN)NC1=O)[C@@H](C)O | > 32 µg/mL | 32 µg/mL (≈ 26.6 µM) | 2 µg/mL (≈ 1.66 µM) | > 32 µg/mL | > 32 µg/mL | 16 µg/mL (≈ 13.3 µM) | 8 µg/mL (≈ 6.65 µM) | 16 µg/mL (≈ 13.3 µM) | > 32 µg/mL | 16 µg/mL (≈ 13.3 µM) | > 32 µg/mL | 4 µg/mL (≈ 3.33 µM) | > 32 µg/mL | > 32 µg/mL | > 32 µg/mL | > 32 µg/mL | > 32 µg/mL
2 | CC[C@H](C)CCCCC(=O)N[C@@H](CCN)C(=O)N[C@H](C(=O)N[C@@H](CCN)C(=O)N[C@H]1CCNC(=O)[C@H](CCCNC(=N)N)NC(=O)[C@H](CCN)NC(=O)[C@H](CCN)NC(=O)[C@H](CC(C)C)NC(=O)[C@@H](Cc2ccccc2)NC(=O)[C@H](CCN)NC1=O)[C@@H](C)O | 32 µg/mL (≈ 25.4 µM) | 32 µg/mL (≈ 25.4 µM) | 2 µg/mL (≈ 1.59 µM) | 32 µg/mL (≈ 25.4 µM) | > 32 µg/mL | 8 µg/mL (≈ 6.36 µM) | 8 µg/mL (≈ 6.36 µM) | 4 µg/mL (≈ 3.18 µM) | 16 µg/mL (≈ 12.7 µM) | 4 µg/mL (≈ 3.18 µM) | > 32 µg/mL | 4 µg/mL (≈ 3.18 µM) | 1 µg/mL (≈ 0.795 µM) | 4 µg/mL (≈ 3.18 µM) | > 32 µg/mL | 32 µg/mL (≈ 25.4 µM) | 8 µg/mL (≈ 6.36 µM)
3 | CC[C@H](C)CCCCC(=O)N[C@@H](CCN)C(=O)N[C@H](C(=O)N[C@@H](CCN)C(=O)N[C@H]1CCNC(=O)[C@H](CCCN)NC(=O)[C@H](CCN)NC(=O)[C@H](CCN)NC(=O)[C@H](CC(C)C)NC(=O)[C@@H](Cc2ccccc2)NC(=O)[C@H](CCN)NC1=O)[C@@H](C)O | > 32 µg/mL | 32 µg/mL (≈ 26.3 µM) | 4 µg/mL (≈ 3.29 µM) | 32 µg/mL (≈ 26.3 µM) | > 32 µg/mL | 16 µg/mL (≈ 13.2 µM) | 16 µg/mL (≈ 13.2 µM) | 8 µg/mL (≈ 6.58 µM) | 32 µg/mL (≈ 26.3 µM) | 4 µg/mL (≈ 3.29 µM) | > 32 µg/mL | 4 µg/mL (≈ 3.29 µM) | > 32 µg/mL | > 32 µg/mL | > 32 µg/mL | 32 µg/mL (≈ 26.3 µM) | > 32 µg/mL
4 | CC[C@H](C)CCCCC(=O)N[C@@H](CCN)C(=O)N[C@H](C(=O)N[C@@H](CCN)C(=O)N[C@H]1CCNC(=O)[C@H](CN)NC(=O)[C@H](CCN)NC(=O)[C@H](CCN)NC(=O)[C@H](CC(C)C)NC(=O)[C@@H](Cc2ccccc2)NC(=O)[C@H](CCN)NC1=O)[C@@H](C)O | 16 µg/mL (≈ 13.5 µM) | 2 µg/mL (≈ 1.68 µM) | 1 µg/mL (≈ 0.841 µM) | 2 µg/mL (≈ 1.68 µM) | 2 µg/mL (≈ 1.68 µM) | 2 µg/mL (≈ 1.68 µM) | 2 µg/mL (≈ 1.68 µM) | 1 µg/mL (≈ 0.841 µM) | 4 µg/mL (≈ 3.37 µM) | 1 µg/mL (≈ 0.841 µM) | 4 µg/mL (≈ 3.37 µM) | 1 µg/mL (≈ 0.841 µM) | 0.5 µg/mL (≈ 0.421 µM) | 4 µg/mL (≈ 3.37 µM) | 4 µg/mL (≈ 3.37 µM) | > 32 µg/mL | 2 µg/mL (≈ 1.68 µM)
5 | CC[C@H](C)CCCCC(=O)N[C@@H](CCN)C(=O)N[C@H](C(=O)N[C@@H](CCN)C(=O)N[C@H]1CCNC(=O)[C@H](Cc2c[nH]cn2)NC(=O)[C@H](CCN)NC(=O)[C@H](CCN)NC(=O)[C@H](CC(C)C)NC(=O)[C@@H](Cc2ccccc2)NC(=O)[C@H](CCN)NC1=O)[C@@H](C)O | > 32 µg/mL | 16 µg/mL (≈ 12.9 µM) | 8 µg/mL (≈ 6.45 µM) | 32 µg/mL (≈ 25.8 µM) | 32 µg/mL (≈ 25.8 µM) | 16 µg/mL (≈ 12.9 µM) | > 32 µg/mL | 16 µg/mL (≈ 12.9 µM) | 16 µg/mL (≈ 12.9 µM) | 4 µg/mL (≈ 3.23 µM) | 16 µg/mL (≈ 12.9 µM) | 16 µg/mL (≈ 12.9 µM) | 1 µg/mL (≈ 0.807 µM) | 8 µg/mL (≈ 6.45 µM) | > 32 µg/mL | 32 µg/mL (≈ 25.8 µM) | 8 µg/mL (≈ 6.45 µM)
6 | CC[C@H](C)CCCCC(=O)N[C@@H](CCN)C(=O)N[C@H](C(=O)N[C@@H](CCN)C(=O)N[C@H]1CCNC(=O)[C@H](Cc2ccccc2)NC(=O)[C@H](CCN)NC(=O)[C@H](CCN)NC(=O)[C@H](CC(C)C)NC(=O)[C@@H](Cc2ccccc2)NC(=O)[C@H](CCN)NC1=O)[C@@H](C)O | 4 µg/mL (≈ 3.2 µM) | 1 µg/mL (≈ 0.8 µM) | 1 µg/mL (≈ 0.8 µM) | 4 µg/mL (≈ 3.2 µM) | 1 µg/mL (≈ 0.8 µM) | 2 µg/mL (≈ 1.6 µM) | 0.5 µg/mL (≈ 0.4 µM) | 2 µg/mL (≈ 1.6 µM) | 4 µg/mL (≈ 3.2 µM) | 2 µg/mL (≈ 1.6 µM) | 4 µg/mL (≈ 3.2 µM) | 1 µg/mL (≈ 0.8 µM) | 1 µg/mL (≈ 0.8 µM) | 1 µg/mL (≈ 0.8 µM) | 2 µg/mL (≈ 1.6 µM) | 2 µg/mL (≈ 1.6 µM) | 2 µg/mL (≈ 1.6 µM)
